Assay results published in ChEMBL document CHEMBL1201862, “PubChem BioAssay data set” (2004).
Activity calls are given as the source filed them.

Columns and labels:
[1] = target: T1, Long-chain-fatty-acid--AMP ligase FadD28 (Mycobacterium tuberculosis, UniProt P9WQ59); experiment: Fluorescence polarization aasay to screen for inhibitors that compete for the binding of FadD28 to a bisubstrate Measured in Biochemical System Using Plate Reader - 2147-01_Inhibitor_Dose_CherryPick_Activity.; assay type: functional, Mycobacterium tuberculosis H37Rv
T1 sequence (P9WQ59 whole entry): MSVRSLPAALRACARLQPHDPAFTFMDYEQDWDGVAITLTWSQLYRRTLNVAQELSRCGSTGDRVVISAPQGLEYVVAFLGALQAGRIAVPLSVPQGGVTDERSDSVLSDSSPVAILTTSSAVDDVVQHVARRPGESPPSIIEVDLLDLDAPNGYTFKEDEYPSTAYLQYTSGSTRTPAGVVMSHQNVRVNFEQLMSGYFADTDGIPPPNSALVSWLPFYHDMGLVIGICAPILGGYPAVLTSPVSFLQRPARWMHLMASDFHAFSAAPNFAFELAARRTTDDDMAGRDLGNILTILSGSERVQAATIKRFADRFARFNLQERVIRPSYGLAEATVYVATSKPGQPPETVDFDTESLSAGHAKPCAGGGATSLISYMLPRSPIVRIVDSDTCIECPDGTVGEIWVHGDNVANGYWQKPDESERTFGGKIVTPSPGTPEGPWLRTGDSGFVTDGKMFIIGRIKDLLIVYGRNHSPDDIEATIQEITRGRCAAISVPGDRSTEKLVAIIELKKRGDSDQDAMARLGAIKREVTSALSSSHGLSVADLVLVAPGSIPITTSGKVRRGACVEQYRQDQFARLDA

[2] = ADAM10 inhibitors, peptide cleavage, dose response, biochemical, QFRET (AID 743254);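 note: ADAM10 enzyme with the DM2 quenched FRET peptide as substrate; EDANS fluorescence gain as the protease cuts the substrate; inhibitor potency against ADAM10 proteolytic activity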
[3] = target: Disintegrin and metalloproteinase domain-containing protein 17 (Homo sapiens, UniProt P78536); experiment: ADAM17 protease inhibitors, dose response, counter-screen for ADAM10 exosite inhibitor project, biochemical, quenched FRET substrate (AID 743253)
Protein RecA = target: T2, Protein RecA (Mycobacterium tuberculosis, UniProt P9WHJ3); experiment: Fluorescence Cell-Free Homogeneous Dose Retest to Identify Inhibitors of RecA-Intein Splicing Activity. [Related pubchem assays (depositor defined):AID2097, AID2223, AID489010, AID492950]; assay type: functional
T2 sequence (P9WHJ3 whole entry): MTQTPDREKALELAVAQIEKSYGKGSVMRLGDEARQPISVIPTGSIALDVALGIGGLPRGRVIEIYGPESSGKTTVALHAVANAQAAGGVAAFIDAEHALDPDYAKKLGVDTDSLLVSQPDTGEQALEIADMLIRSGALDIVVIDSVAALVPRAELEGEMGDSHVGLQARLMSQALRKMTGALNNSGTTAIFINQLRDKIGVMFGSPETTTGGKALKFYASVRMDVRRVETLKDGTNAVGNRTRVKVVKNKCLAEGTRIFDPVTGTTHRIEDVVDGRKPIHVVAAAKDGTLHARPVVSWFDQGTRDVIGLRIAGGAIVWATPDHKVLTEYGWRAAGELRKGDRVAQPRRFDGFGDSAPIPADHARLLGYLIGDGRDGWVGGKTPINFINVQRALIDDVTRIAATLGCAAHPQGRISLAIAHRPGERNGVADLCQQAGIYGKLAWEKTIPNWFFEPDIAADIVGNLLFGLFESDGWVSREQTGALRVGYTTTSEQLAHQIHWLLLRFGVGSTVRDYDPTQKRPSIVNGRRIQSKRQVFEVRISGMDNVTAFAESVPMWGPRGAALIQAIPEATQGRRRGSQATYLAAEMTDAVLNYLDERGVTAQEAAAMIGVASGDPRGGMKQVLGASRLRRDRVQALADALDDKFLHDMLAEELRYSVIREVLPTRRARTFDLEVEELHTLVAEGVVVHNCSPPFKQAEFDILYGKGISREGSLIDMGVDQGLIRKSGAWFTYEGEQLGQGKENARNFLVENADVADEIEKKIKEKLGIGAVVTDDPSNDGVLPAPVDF

[4] = target: T3, Replicative DNA helicase DnaB (Mycobacterium tuberculosis, UniProt P9WMR3); experiment: DnaB intein splicing inhibitors, dose response, biochemical, cell-free fluorescence (AID 449749); assay type: functional
T3 sequence (P9WMR3 whole entry): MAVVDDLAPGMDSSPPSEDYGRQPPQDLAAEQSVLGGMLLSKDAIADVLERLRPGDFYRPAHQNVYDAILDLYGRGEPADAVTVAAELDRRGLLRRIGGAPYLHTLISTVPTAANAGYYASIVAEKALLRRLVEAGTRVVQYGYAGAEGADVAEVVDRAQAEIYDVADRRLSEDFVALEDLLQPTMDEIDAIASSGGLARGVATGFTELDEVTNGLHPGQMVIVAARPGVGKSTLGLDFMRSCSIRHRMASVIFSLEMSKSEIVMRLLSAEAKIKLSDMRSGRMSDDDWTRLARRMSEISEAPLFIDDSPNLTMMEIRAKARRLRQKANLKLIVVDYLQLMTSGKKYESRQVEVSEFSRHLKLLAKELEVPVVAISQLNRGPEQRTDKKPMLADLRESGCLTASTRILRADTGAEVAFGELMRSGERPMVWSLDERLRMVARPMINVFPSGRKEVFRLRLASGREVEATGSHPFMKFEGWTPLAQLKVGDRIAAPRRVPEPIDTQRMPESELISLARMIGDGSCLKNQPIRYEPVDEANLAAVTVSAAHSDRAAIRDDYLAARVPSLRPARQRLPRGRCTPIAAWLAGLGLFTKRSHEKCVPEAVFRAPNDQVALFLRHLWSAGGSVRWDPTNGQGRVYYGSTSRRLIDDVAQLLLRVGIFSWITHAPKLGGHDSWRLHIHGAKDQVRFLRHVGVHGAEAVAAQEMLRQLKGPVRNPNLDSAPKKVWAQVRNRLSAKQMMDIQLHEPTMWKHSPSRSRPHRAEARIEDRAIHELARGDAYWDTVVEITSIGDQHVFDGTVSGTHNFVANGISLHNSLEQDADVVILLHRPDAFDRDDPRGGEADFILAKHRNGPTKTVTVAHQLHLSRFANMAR

Streptokinase A = target: T4, Streptokinase A (Streptococcus pyogenes serotype M1, UniProt P10520); experiment: S. pyogenes streptokinase expression inhibitors, potency, dose response, plasminogen activation absorbance, OD405 (AID 1914); assay type: functional, Streptococcus pyogenes M1 GAS;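 note: secreted streptokinase activity via plasminogen activation per viability signal from cell pellet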
T4 sequence (P10520 whole entry): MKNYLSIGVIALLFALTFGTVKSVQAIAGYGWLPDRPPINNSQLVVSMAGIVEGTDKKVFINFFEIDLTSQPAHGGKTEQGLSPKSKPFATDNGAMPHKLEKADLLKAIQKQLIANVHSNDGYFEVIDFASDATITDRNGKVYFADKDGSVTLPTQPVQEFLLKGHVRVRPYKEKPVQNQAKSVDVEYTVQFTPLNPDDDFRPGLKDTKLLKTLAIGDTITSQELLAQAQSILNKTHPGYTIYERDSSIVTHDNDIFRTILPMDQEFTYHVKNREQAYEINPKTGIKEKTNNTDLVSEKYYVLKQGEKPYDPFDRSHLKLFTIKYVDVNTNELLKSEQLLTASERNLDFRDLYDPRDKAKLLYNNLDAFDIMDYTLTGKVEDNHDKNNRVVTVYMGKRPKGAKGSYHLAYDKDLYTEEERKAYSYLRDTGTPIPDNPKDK

[5] = tested on: Streptococcus sp. 'group A'; experiment: growth inhibition of control SK(-) GAS strain, dose response, counter-screen for streptokinase expression inhibitor project, luminescence, kanamycin, BacTiterGlo, confirmation (AID 1900); assay type: functional, organism-based
Streptococcus = experiment: Group A Streptococcus viability loss, dose response, counter-screen for streptokinase expression inhibitor project, luminescence, BacTiterGlo (AID 1915); assay type: functional, organism-based;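 note: potency for reduction of bacterial viability or growth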
Paired box protein Pax-8 = Paired box protein Pax-8 (Homo sapiens, UniProt Q06710); experiment: inhibitors of PAX8-driven TPO luciferase reporter, dose response, RMG-I cells, cherry-pick (AID 687027); assay type: functional, cell-based;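 note: luciferase reporter driven by Pax8 target thyroperoxidase promoter measured by SteadyGlo luminescence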
[6] = A2780 ovarian cancer cell cytotoxicity, dose response, cytotoxicity control, plate reader, dry powder samples (AID 743046); assay type: functional, cell-based
[7] = NIH:OVCAR-3 ovarian cancer cell cytotoxicity, dose response, PAX8 inhibitor project, plate reader, dry powder samples (AID 743044); assay type: functional, cell-based
[8] = IGROV1 ovarian cancer cell cytotoxicity, dose response, PAX8 inhibitor project, plate reader, dry powder samples (AID 743043); assay type: functional, cell-based; settings: IGROV-1
[9] = cytotoxicity in OVCAR8 ovarian cancer cells, dose response, PAX8 project, cell-based, plate reader, dry powder samples (AID 743197); assay type: functional; settings: OVCAR-8
Caspase-6 = target: T5, Caspase-6 (Homo sapiens, UniProt P55212); experiment: human caspase-6 inhibitors, dose response, biochemical, VEID-R110 fluorescence, cherry-pick (AID 720632)
T5 sequence (P55212 whole entry): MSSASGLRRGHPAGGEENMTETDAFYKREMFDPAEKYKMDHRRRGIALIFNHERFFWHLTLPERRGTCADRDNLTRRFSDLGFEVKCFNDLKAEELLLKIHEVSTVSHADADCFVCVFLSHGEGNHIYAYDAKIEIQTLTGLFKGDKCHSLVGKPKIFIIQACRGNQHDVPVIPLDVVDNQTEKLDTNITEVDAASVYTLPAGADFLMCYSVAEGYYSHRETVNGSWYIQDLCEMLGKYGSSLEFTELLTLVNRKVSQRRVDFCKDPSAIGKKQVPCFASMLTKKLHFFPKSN

Chain of Paired box protein Pax-8 (Q06710 whole entry): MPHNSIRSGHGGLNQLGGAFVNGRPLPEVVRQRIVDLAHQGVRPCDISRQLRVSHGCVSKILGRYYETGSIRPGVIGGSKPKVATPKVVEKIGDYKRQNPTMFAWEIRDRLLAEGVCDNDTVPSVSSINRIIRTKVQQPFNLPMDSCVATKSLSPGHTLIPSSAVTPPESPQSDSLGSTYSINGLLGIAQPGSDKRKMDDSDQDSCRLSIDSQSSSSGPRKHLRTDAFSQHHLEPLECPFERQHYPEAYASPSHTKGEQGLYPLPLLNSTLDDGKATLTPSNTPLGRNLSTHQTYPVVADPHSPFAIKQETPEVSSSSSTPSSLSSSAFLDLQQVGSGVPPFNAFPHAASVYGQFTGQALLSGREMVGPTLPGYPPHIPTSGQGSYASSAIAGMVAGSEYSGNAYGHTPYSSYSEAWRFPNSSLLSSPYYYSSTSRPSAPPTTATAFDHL
Chain of Disintegrin and metalloproteinase domain-containing protein 17 (P78536 whole entry, the tested form may be a part): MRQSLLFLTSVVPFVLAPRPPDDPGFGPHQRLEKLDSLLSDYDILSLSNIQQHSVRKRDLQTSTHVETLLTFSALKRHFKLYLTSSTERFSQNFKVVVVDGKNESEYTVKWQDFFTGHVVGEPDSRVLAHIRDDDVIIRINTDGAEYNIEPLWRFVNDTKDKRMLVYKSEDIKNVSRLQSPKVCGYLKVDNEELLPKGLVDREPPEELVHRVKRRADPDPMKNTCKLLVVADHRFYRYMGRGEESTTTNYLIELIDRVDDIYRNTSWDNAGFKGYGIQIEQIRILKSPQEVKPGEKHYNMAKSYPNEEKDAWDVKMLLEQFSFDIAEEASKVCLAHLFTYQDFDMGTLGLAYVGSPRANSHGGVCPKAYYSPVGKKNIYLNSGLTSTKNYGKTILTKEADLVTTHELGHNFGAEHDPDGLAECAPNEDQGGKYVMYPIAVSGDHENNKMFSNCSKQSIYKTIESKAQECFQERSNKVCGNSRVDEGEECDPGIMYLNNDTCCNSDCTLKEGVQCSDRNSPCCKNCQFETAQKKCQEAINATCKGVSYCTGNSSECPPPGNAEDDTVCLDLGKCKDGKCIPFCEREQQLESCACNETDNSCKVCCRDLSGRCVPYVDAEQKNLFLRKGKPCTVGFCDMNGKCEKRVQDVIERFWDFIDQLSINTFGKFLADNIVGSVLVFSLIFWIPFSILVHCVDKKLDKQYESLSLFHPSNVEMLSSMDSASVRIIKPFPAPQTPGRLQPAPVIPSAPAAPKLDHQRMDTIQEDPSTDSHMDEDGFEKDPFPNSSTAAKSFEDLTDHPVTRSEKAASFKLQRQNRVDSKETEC

Question: For Cc1ccc(N/C(C(Cl)=C(Cl)Cl)=C(/Cl)[N+](=O)[O-])c(C)c1, which AC50 [1] is on record?
Answer: > 100 µM (inactive)

Question: Which IC50 [2] does the source give for CC(C)C[C@H](NC(=O)c1[nH]cnc1C(=O)NC(c1ccccc1)c1ccccc1)C(=O)OCc1ccccc1 here?
Answer: 19.4 µM (inactive)

Question: Which IC50 [3] does the source give for CC(C)C[C@H](NC(=O)c1nc[nH]c1C(=O)NC(c1ccccc1)c1ccccc1)C(=O)OCc1ccccc1 here?
Answer: > 69.5 µM (inactive)

Question: What does the source list for CC1=NN(c2nc(-c3ccccc3)cs2)C(=O)C1?
Answer: EC50 (Protein RecA): 6.75 µM (active); AC50 [4]: 7.99 µM (active); AC50 [1]: > 100 µM (inactive); EC50 (Streptokinase A): 10 µM (active); EC50 [5]: 16.9 µM (active); EC50 (Streptococcus): > 150 µM (not active)

Question: With Cc1ccc2c(c1)NC(=O)[C@@]1(C)[C@@H](c3ccccc3)[C@H]3COc4ccccc4[C@@H]3N1C2=O as the molecule, how does the IC50 [2] read?
Answer: > 69.5 µM (inactive)

Question: And the IC50 [3]?
Answer: > 69.5 µM (inactive)

Question: For C[C@H]1CN([C@@H](C)CO)C(=O)c2cc(NS(=O)(=O)c3ccccc3)ccc2O[C@@H]1CN(C)Cc1ccc(Oc2ccccc2)cc1, which AC50 (Paired box protein Pax-8) is on record?
Answer: 15.7 µM (active)

Question: And the AC50 [6]?
Answer: 8.52 µM (active)

Question: Which results are given for C[C@@H]1CCCCO[C@H](CN(C)Cc2ccc(C(F)(F)F)cc2)[C@H](C)CN([C@H](C)CO)C(=O)c2cc(NC(=O)Cc3ccccc3)ccc2O1?
Answer: AC50 [7]: 26.8 µM (active); AC50 [8]: 43.9 µM (active); AC50 (Paired box protein Pax-8): 6.16 µM (active); AC50 [9]: 34.7 µM (active)

Question: For C[C@@H]1CCCCO[C@@H](CN(C)C(=O)NC2CCCCC2)[C@H](C)CN([C@@H](C)CO)C(=O)c2cc(NC(=O)Nc3ccc(C(F)(F)F)cc3)ccc2O1, which AC50 [7] is on record?
Answer: 38 µM (active)

Question: And the AC50 (Paired box protein Pax-8)?
Answer: 3.5 µM (active)

Question: And the AC50 [6]?
Answer: 5.99 µM (active)

Question: And the AC50 [9]?
Answer: 47.1 µM (active)

Question: For CC(=O)Nc1cccc2cc(S(=O)(=O)O)ccc12, which AC50 (Caspase-6) is on record?
Answer: 15.6 µM (active)
